Test results published in patent US7091202B2, “4-arylspirocycloalkyl-2-aminopyrimidine carboxamide KCNQ potassium channel modulators” (Bristol-Myers Squibb Company, priority 2004, dated 2006).

target: T1, hQ23 (HEK-293 cell line stably transfected with one of the members of the KCNQ family) (Homo sapiens, UniProt O43525+O43526); assay: Thallium flux assay for KCNQ channel blockers (FLIPR, BTC dye); assay type: cell-based; conditions: Table 2; thallium flux, HEK-293
T1 construct: expressed in transfected cells; host or cells: HEK-293, stably transfected
Procedure, shortened: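 HEK-293 cells stably expressing a KCNQ member, loaded with BTC-AM (2 μM) in chloride-free buffer, pH 7.3; compounds added at 1% DMSO, then Tl2SO4 stimulus on FLIPR (488/540 nm, 60 s). Minimal active concentration set at ≥4 SD above negative control; IC50 from 10-point 1:3 series, single-site logistic fit versus the positive-control blocker.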

T1 sequence (O43526 whole entry): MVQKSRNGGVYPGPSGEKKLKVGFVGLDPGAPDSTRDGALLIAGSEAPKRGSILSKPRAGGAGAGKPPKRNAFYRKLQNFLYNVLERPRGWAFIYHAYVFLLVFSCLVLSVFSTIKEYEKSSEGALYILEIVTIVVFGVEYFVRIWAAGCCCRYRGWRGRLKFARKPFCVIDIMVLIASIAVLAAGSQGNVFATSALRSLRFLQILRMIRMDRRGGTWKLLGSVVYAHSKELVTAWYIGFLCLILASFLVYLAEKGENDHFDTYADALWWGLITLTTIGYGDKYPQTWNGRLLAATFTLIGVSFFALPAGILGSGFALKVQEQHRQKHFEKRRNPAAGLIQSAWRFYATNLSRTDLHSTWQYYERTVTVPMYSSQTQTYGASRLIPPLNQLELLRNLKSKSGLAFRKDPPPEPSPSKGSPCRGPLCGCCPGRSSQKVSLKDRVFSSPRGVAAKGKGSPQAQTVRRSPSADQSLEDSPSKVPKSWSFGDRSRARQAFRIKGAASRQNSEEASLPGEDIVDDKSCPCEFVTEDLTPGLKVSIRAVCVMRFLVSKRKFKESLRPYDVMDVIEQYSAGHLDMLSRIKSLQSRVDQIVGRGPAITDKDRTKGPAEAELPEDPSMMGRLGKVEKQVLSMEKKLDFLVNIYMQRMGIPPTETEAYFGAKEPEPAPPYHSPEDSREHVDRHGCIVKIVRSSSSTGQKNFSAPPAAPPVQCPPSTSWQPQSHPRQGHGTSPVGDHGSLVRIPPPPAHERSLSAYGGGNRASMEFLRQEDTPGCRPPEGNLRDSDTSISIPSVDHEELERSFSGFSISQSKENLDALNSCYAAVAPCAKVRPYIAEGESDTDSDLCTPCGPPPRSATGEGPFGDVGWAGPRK
T1 sequence (O43525 whole entry): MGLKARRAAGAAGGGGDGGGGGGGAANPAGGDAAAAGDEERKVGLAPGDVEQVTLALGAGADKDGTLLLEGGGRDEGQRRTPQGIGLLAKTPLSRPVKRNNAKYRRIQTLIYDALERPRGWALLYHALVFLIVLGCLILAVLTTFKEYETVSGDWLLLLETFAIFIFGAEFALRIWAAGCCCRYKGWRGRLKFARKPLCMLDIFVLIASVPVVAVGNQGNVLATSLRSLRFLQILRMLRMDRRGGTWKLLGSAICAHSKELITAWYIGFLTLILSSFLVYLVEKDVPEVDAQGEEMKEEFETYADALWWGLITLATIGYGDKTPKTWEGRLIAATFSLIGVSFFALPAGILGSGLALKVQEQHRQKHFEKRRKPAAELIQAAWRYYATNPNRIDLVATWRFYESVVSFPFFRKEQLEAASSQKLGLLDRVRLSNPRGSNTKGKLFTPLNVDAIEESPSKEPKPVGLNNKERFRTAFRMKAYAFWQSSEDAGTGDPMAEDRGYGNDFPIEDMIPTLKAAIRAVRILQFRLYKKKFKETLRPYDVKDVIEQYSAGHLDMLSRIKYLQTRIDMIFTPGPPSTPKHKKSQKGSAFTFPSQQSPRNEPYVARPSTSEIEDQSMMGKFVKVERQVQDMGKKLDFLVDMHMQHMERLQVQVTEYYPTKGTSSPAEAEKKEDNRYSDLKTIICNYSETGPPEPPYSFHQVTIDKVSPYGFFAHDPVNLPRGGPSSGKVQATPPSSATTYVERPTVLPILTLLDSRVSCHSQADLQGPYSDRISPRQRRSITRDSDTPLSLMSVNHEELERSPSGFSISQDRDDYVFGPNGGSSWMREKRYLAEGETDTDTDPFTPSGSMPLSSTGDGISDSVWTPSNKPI

EC50 | Compound
209 nM | O=C(NCc1cc(F)cc(C(F)(F)F)c1)c1cnc(N2CCCC2)nc1C1(c2ccccc2)CC1 [Example 45, 5-pyrimidinecarboxamide, N-[[3-fluoro-5-(trifluoromethyl)phenyl]methyl]-4-(1-phenylcyclopropyl)-2-(1-pyrrolidinyl)-]
475 nM | CCN(Cc1ccccc1)C(=O)c1cnc(N2CCC(C)CC2)nc1C1(c2ccccc2)CC1 [Example 31, 5-pyrimidinecarboxamide, N-ethyl-2-(4-methyl-1-piperidinyl)-4-(1-phenylcyclopropyl)-N-(phenylmethyl)-]
44 nM | CC1CCC(Nc2ncc(C(=O)NCc3cc(F)cc(C(F)(F)F)c3)c(C3(c4ccccc4)CC3)n2)CC1 (centres unmarked) [Example 44, 5-pyrimidinecarboxamide, N-[[3-fluoro-5-(trifluoromethyl)phenyl]methyl]-2-[(4-methylcyclohexyl)amino]-4-(1-phenylcyclopropyl)-]
214 nM | CC1CCCN(c2ncc(C(=O)NCc3cccc4ccccc34)c(C3(c4ccccc4)CC3)n2)C1 (centres unmarked) [Example 37, 5-pyrimidinecarboxamide, 2-(3-methyl-1-piperidinyl)-N-(1-naphthalenylmethyl)-4-(1-phenylcyclopropyl)-]
297 nM | CC1CCN(c2ncc(C(=O)NCc3cc(F)cc(C(F)(F)F)c3)c(C3(c4ccccc4)CC3)n2)CC1 [Example 48, 5-pyrimidinecarboxamide, N-[[3-fluoro-5-(trifluoromethyl)phenyl]methyl]-2-(4-methyl-1-piperidinyl)-4-(1-phenylcyclopropyl)-]
546 nM | CC1CCN(c2ncc(C(=O)N3CCc4ccccc4C3)c(C3(c4ccccc4)CC3)n2)CC1 [Example 26, isoquinoline, 1,2,3,4-tetrahydro-2-[[2-(4-methyl-1-piperidinyl)-4-(1-phenylcyclopropyl)-5-pyrimidinyl]carbonyl]-]

same assay, conditions: Table 3; thallium flux, HEK-293

EC50 | Compound
10 nM | CC1CCN(c2ncc(C(=O)NCc3cc(F)cc(C(F)(F)F)c3)c(C3(c4ccc(Cl)cc4)CCC3)n2)CC1 [Example 67, 5-pyrimidinecarboxamide, 4-[1-(4-chlorophenyl)cyclobutyl]-N-[[3-fluoro-5-(trifluoromethyl)phenyl]methyl]-2-(4-methyl-1-piperidinyl)-]

same assay, conditions: hQ23 cells, thallium flux

EC50 | Compound
950 nM | O=C(c1cnc(NC2CCCC2)nc1C1(c2ccccc2)CCCC1)N1CCc2ccccc2C1 [Example 75, isoquinoline, 2-[[2-(cyclopentylamino)-4-(1-phenylcyclopentyl)-5-pyrimidinyl]carbonyl]-1,2,3,4-tetrahydro-]
116 nM | CC1CCCN(c2ncc(C(=O)N(C)Cc3ccccc3)c(C3(c4ccc(F)cc4)CCCC3)n2)C1 (centres unmarked) [Example 205, 5-pyrimidinecarboxamide, 4-[1-(4-fluorophenyl)cyclopentyl]-N-methyl-2-(3-methyl-1-piperidinyl)-N-(phenylmethyl)-]
32 nM | O=C(NCc1cc(F)cc(C(F)(F)F)c1)c1cnc(N2CCCC2)nc1C1(c2ccc(Cl)cc2)CCCC1 [Example 191, 5-pyrimidinecarboxamide, 4-[1-(4-chlorophenyl)cyclopentyl]-N-[[3-fluoro-5-(trifluoromethyl)phenyl]methyl]-2-(1-pyrrolidinyl)-]
851 nM | CCC(C)Nc1ncc(C(=O)N(CC)Cc2ccccc2)c(C2(c3ccccc3)CCCC2)n1 (centres unmarked) [Example 87, 5-pyrimidinecarboxamide, N-ethyl-2-[(1-methylpropyl)amino]-4-(1-phenylcyclopentyl)-N-(phenylmethyl)-]
37 nM | CC1CCCN(c2ncc(C(=O)NCc3ccc(F)cc3F)c(C3(c4ccccc4)CCCC3)n2)C1 (centres unmarked) [Example 118, 5-pyrimidinecarboxamide, N-[(2,4-difluorophenyl)methyl]-2-(3-methyl-1-piperidinyl)-4-(1-phenylcyclopentyl)-]
895 nM | CN(CCc1ccccc1)C(=O)c1cnc(NC2CC2)nc1C1(c2ccc(Cl)cc2)CCCC1 [Example 145, 5-pyrimidinecarboxamide, 4-[1-(4-chlorophenyl)cyclopentyl]-2-(cyclopropylamino)-N-methyl-N-(2-phenylethyl)-]
718 nM | CN(Cc1ccccc1)C(=O)c1cnc(NC2CCCC2)nc1C1(c2ccccc2)CCCC1 [Example 71, 5-pyrimidinecarboxamide, 2-(cyclopentylamino)-N-methyl-4-(1-phenylcyclopentyl)-N-(phenylmethyl)-]
183 nM | CN(Cc1ccccc1)C(=O)c1cnc(NC2CCCC2)nc1C1(c2ccc(Cl)cc2)CCCC1 [Example 141, 5-pyrimidinecarboxamide, 4-[1-(4-chlorophenyl)cyclopentyl]-2-(cyclopentylamino)-N-methyl-N-(phenylmethyl)-]
692 nM | O=C(NCc1ccc2c(c1)OCO2)c1cnc(NC2CC2)nc1C1(c2ccccc2)CCCC1 [Example 89, 5-pyrimidinecarboxamide, N-(1,3-benzodioxol-5-ylmethyl)-2-(cyclopropylamino)-4-(1-phenylcyclopentyl)-]
285 nM | CC1CCCN(c2ncc(C(=O)N(C(C)C)C(C)C)c(C3(c4ccccc4)CCCC3)n2)C1 (centres unmarked) [Example 82, 5-pyrimidinecarboxamide,N,N-bis(1-methylethyl)-2-(3-methyl-1-piperidinyl)-4-(1-phenylcyclopentyl)-]
233 nM | CC1CCC(Nc2ncc(C(=O)NC(C)c3ccc(F)cc3)c(C3(c4ccc(Cl)cc4)CCCC3)n2)CC1 (centres unmarked) [Example 197, 5-pyrimidinecarboxamide, 4-[1-(4-chlorophenyl)cyclopentyl]-N-[1-(4-fluorophenyl)ethyl]-2-[(4-methylcyclohexyl)amino]-]
10 nM | O=C(NCc1cc(F)cc(C(F)(F)F)c1)c1cnc(NC2CC2)nc1C1(c2ccccc2)CCCC1 [Example 122, 5-pyrimidinecarboxamide, 2-(cyclopropylamino)-N-[[3-fluoro-5-(trifluoromethyl)phenyl]methyl]-4-(1-phenylcyclopentyl)-]
64 nM | CC1CCCN(c2ncc(C(=O)NCc3ccc(Cl)cc3Cl)c(C3(c4ccccc4)CCCC3)n2)C1 (centres unmarked) [Example 112, 5-pyrimidinecarboxamide, N-[(2,4-dichlorophenyl)methyl]-2-(3-methyl-1-piperidinyl)-4-(1-phenylcyclopentyl)-]
709 nM | CN(C)CCNc1ncc(C(=O)NCc2ccc(Cl)cc2Cl)c(C2(c3ccc(Cl)cc3)CCCC2)n1 [Example 184, 5-pyrimidinecarboxamide, 4-[1-(4-chlorophenyl)cyclopentyl]-N-[(2,4-dichlorophenyl)methyl]-2-[[2-(dimethylamino)ethyl]amino]-]
319 nM | CC1CCCN(c2ncc(C(=O)NCc3cc(F)cc(C(F)(F)F)c3)c(C3(c4ccccc4)CCCC3)n2)C1 (centres unmarked) [Example 126, 5-pyrimidinecarboxamide, N-[[3-fluoro-5-(trifluoromethyl)phenyl]methyl]-2-(3-methyl-1-piperidinyl)-4-(1-phenylcyclopentyl)-]
10 nM | CC1CCN(c2ncc(C(=O)NCc3cccc4ccccc34)c(C3(c4ccc(Cl)cc4)CCCC3)n2)CC1 [Example 170, 5-pyrimidinecarboxamide, 4-[1-(4-chlorophenyl)cyclopentyl]-2-(4-methyl-1-piperidinyl)-N-(1-naphthalenylmethyl)-]
875 nM | O=C(NCc1cc(F)cc(C(F)(F)F)c1)c1cnc(NC2CCCC2)nc1C1(c2ccccc2)CCCC1 [Example 130, 5-pyrimidinecarboxamide, 2-(cyclopentylamino)-N-[[3-fluoro-5-(trifluoromethyl)phenyl]methyl]-4-(1-phenylcyclopentyl)-]
576 nM | CCN(CC)C(=O)c1cnc(NC2CCC(C)CC2)nc1C1(c2ccccc2)CCCC1 (centres unmarked) [Example 72, 5-pyrimidinecarboxamide,N,N-diethyl-2-[(4-methylcyclohexyl)amino]-4-(1-phenylcyclopentyl)-]
798 nM | CC1CCC(Nc2ncc(C(=O)N3CCc4ccccc4C3)c(C3(c4ccccc4)CCCC3)n2)CC1 (centres unmarked) [Example 73, isoquinoline, 1,2,3,4-tetrahydro-2-[[2-[(4-methylcyclohexyl)amino]-4-(1-phenylcyclopentyl)-5-pyrimidinyl]carbonyl]-]
301 nM | CCC(C)Nc1ncc(C(=O)NCc2ccc3c(c2)OCO3)c(C2(c3ccccc3)CCCC2)n1 (centres unmarked) [Example 94, 5-pyrimidinecarboxamide, N-(1,3-benzodioxol-5-ylmethyl)-2-[(1-methylpropyl)amino]-4-(1-phenylcyclopentyl)-]
437 nM | CC1CCN(c2ncc(C(=O)N(C)CCc3ccccc3)c(C3(c4ccccc4)CCCC3)n2)CC1 [Example 81, 5-pyrimidinecarboxamide, N-methyl-2-(4-methyl-1-piperidinyl)-4-(1-phenylcyclopentyl)-N-(2-phenylethyl)-]

same assay, conditions: hQ23 cells, thallium flux assay

EC50 | Compound
55 nM | CCC(C)Nc1ncc(C(=O)NCc2cc(F)cc(C(F)(F)F)c2)c(C2(c3ccc(F)cc3)CCCC2)n1 (centres unmarked) [Example 279, 5-pyrimidinecarboxamide, 4-[1-(4-fluorophenyl)cyclopentyl]-N-[[3-fluoro-5-(trifluoromethyl)phenyl]methyl]-2-[(1-methylpropyl)amino]-]
852 nM | CCC(C)Nc1ncc(C(=O)NC(C)c2ccc(F)cc2)c(C2(c3ccc(F)cc3)CCCC2)n1 (centres unmarked) [Example 286, 5-pyrimidinecarboxamide, 4-[1-(4-fluorophenyl)cyclopentyl]-N-[1-(4-fluorophenyl)ethyl]-2-[(1-methylpropyl)amino]-]
282 nM | CN1CCC(N(C)c2ncc(C(=O)NCc3ccc(Cl)cc3Cl)c(C3(c4ccc(F)cc4)CCCC3)n2)CC1 [Example 264, 5-pyrimidinecarboxamide, N-[(2,4-dichlorophenyl)methyl]-4-[1-(4-fluorophenyl)cyclopentyl]-2-[methyl(1-methyl-4-piperidinyl)amino]-]
10 nM | CC1CCN(c2ncc(C(=O)NC(C)c3cccc4ccccc34)c(C3(c4ccc(F)cc4)CCCC3)n2)CC1 (centres unmarked) [Example 245, 5-pyrimidinecarboxamide, 4-[1-(4-fluorophenyl)cyclopentyl]-2-(4-methyl-1-piperidinyl)-N-[1-(1-naphthalenyl)ethyl]-]
